ChEMBL document CHEMBL1141428, “Polyisoprenylated benzoylphloroglucinol derivatives from Hypericum sampsonii” (2007)
Values after ≈ are worked out from the molar mass of the structure shown.

Test system: Staphylococcus aureus
Assay: Antibacterial activity against multidrug-resistant Staphylococcus aureus 1199B overexpressing NorA after 18 hrs
Type: functional

Structure (SMILES) | MIC
CC(C)=CC[C@H]1C[C@]2(CC=C(C)C)C(=O)C(C(=O)c3ccccc3)=C(O)[C@](CC=C(C)C)(C2=O)C1(C)C | 7.3 µM (≈ 3.67 µg/mL)
CCn1cc(C(=O)O)c(=O)c2cc(F)c(N3CCNCC3)cc21 [NORFLOXACIN] | 100 µM (≈ 31.9 µg/mL)
